# Earlier results, collected in patent US20160235839A1, “CALCIUM FLUORIDE COMPOSITIONS” (priority 2013, published 2016).
# Tested on: chicken red blood cells
# Conditions: no cholesterol
substance,measurement,value
QS21,Hemolytic activity of QS21 by itself,too hemolytic
